These results are taken from article PMC7763444, “Bioactive Steroids from the Red Sea Soft Coral Sinularia polydactyla” (Marine Drugs, 2020).

Molecules are shown by their SMILES.

Series [1] is described as follows: in vitro. Particulars: human.
Method: (§1) Initially, the cytotoxic activity of metabolites 3–7, 9–12, 14–20, and 22–26 was evaluated in human cancer and normal cells after 72 h of treatment. Human cervical cancer (HeLa), human breast adenocarcinoma (MCF7) cell lines, and human normal fibroblasts (BJ) were used for the screening.
(§2) In cytotoxicity assays, cancer cells were treated with six different concentrations of each tested compound for 72 h. Cells were stained with resazurin and IC50 values were calculated as previously reported [26]. Triplicates from at least three independent experiments were used.
Series [2] has as its system HeLa (human cervical cancer cell line). Briefly: Cytotoxicity, resazurin assay, 72 h. Particulars: read-out: Cytotoxicity (IC50) HeLa. For orientation: Resazurin is reduced to fluorescent resorufin, in cell work by metabolically active cells.
Method: as §1
(§3) The tested compounds were dissolved in DMSO to afford 10 mM stock solutions. Human cervical carcinoma (HeLa) and human breast adenocarcinoma (MCF7) cell lines were purchased from European Collection of Authenticated Cell Cultures (ECACC, Salisbury, UK) and cultivated in Dulbecco’s Modified Eagle Medium (DMEM) (Merck, Darmstadt, Germany), as previously reported [27]. […] All cells were maintained in a humidified CO2 incubator at 37 °C using the standard trypsinization procedure twice or three times a week. […] All cells were maintained in a humidified CO2 incubator at 37 °C using the standard trypsinization procedure twice or three times a week.
as §2
Series [3] has as its system MCF7 (human breast adenocarcinoma cell line). Put plainly: Cytotoxicity, resazurin assay, 72 h. Particulars: MCF7, 72 h, read-out: Cytotoxicity (IC50) MCF7.
Method: as §1, §3, §2
Series [4] has as its system androgen receptor (AR). Briefly: AR-transcriptional reporter assay (luciferase) in 22Rv1-ARE14 cells. The conditions noted are these: 24 h; for Luciferase activity (AR-mediated transcription), in words: six concentrations, already at submicromolar concentrations. Background: A reporter such as luciferase makes a cellular process visible.
Method: Therefore, we further analyzed the influence of the isolated steroids on AR-mediated transcription. […] Control cells were grown in charcoal-stripped serum medium (CSS). Cells were stimulated with either 1 nM methyltrienolone R1881 (R) or with the tested compounds in six different concentrations for 24 h in CSS. The luciferase activity was measured in the cell lysate. […] The experiment was repeated three times in triplicates.
AR-transcriptional reporter assays were performed on 22Rv1-ARE14 cells after 24 h of incubation, as previously described [22].
Series [5] relates to human umbilical vein endothelial cells (HUVEC). Briefly: Migration scratch assay. The series is classed as cell-based. Particulars: 20 µM, 20 h of treatment. Here is the method: Subsequently, we examined whether the isolated steroids could influence angiogenesis or inflammation in vitro. […] Only non-cytotoxic concentrations in HUVECs were used for the scratch assay.
The scratch test was performed with HUVEC cells and evaluated after 20 h of treatment, as previously reported.

In series [6] the test system is neuron-like SH-SY5Y cells. Put plainly: Cell death in 3-NPA model, propidium iodide (PI) assay. Type of series: cell-based, human. The conditions noted are these: maximal effect at 10 µM, with 20 mM 3-NPA, 48 h. Here is the method:
In order to evaluate the potential neuroprotective effect of the compounds, neuroblastoma cell line SH-SY5Y was differentiated for 48 h and further exposed to 20 mM 3-nitropropionic acid (3-NPA) as an agent mimicking Huntington’s disease in vitro [25]. 3-NPA was used alone or in co-treatment with the tested compounds at concentrations of 0.1–10 µM. […] In general, PI as a positively charged dye is associated with an increase of cell damage or death, since it penetrates cells with cell-disrupted membranes. Within the 3-NPA model, its toxic effect was considered as 100% of the PI signal and thus reduction of cell death was determined.
N-acetylcysteine (NAC) was used as a positive control. * p compared with vehicle with 20 mM 3-NPA, # p compared with vehicle without 20 mM 3-NPA.
Cell death of SH-SY5Y cells (20,000 cells/well) was determined using the propidium iodide (PI) assay according to Stone et al. with a slight modification. […] The resulting fluorescence of 3-NPA toxin was considered as 100% cell death. In the assays, neuron-like cells were treated with the tested compounds in 0.1–10 µM concentration range for 48 h. DMSO-treated cells (≤0.1% v/v) were used as healthy controls.

The test system of series [7] is BJ (human normal fibroblasts).
Method: as §1, §2
The nature of series [8]: Cytotoxicity, resazurin assay, 72 h. The conditions noted are these: human, BJ cells (human normal fibroblasts).
Method: as §1, §2

Broadly, the IC50 is the concentration that gives 50% inhibition. Take `C=C(CCC(C)C1CCC2C3CCC4C(C)C(O)CCC4(C)C3CCC12C)C(C)C` (stereo not drawn) [Compound 3, 4α,24-dimethyl-5α-cholest-24(28)-en-3β-οl]: the IC50 at 72 h in series [1] was > 50 µM. Also, the IC50 in series [2] and in series [3] was > 50 µM each time.
`CC(C)[C@@H](C)/C=C/[C@@H](C)[C@H]1CC[C@H]2[C@@H]3CC[C@H]4[C@H](C)[C@@H](O)CC[C@]4(C)[C@H]3CC[C@]12C` [Compound 4, (22E,24R)-4α,24-dimethyl-5α-cholest-22-en-3β-ol]: the IC50 at 72 h in series [1] was > 50 µM. Besides, the IC50 in series [2] and in series [3] was > 50 µM in each case.
`C=C(CCC(C)C1CCC2C1(C)CCC1C3(C)CCC(O)C(C)C3CCC21O)C(C)C` (stereo not drawn) [Compound 5, 4α,24-dimethyl-5α-cholest-24(28)-en-3β,8β-diol]: in series [1], the IC50 at 72 h is > 50 µM. Also, the IC50 in series [2] and in series [3] was > 50 µM in each case.
On to `CC(C)[C@@H](C)/C=C/[C@@H](C)[C@H]1CC[C@@H]2[C@]1(C)CC[C@@H]1[C@@]3(C)CC[C@H](O)[C@@H](C)[C@@H]3CC[C@@]21O` [Compound 6, (22E,24R)-4α,24-dimethyl-5α-cholest-22-en-3β,8β-diol], for which the IC50 at 72 h in series [1] is > 50 µM. Further, the IC50 in series [2] and in series [3] was > 50 µM each time.
As to `C=C(C(=O)CC(C)C1CCC2C1(C)CCC1C3(C)CCC(O)C(C)C3CCC21O)C(C)C` (stereo not drawn) [Compound 7, 23-oxo-4α,24-dimethyl-5α-cholest-24(28)-en-3β,8β-diol], the IC50 at 72 h in series [1] was > 50 µM. In addition, the IC50 in series [2] and in series [3] was > 50 µM each time.
`C=C(CCC(C)C1CCC2C1(C)CC(O)C1C3(C)CCC(O)C(C)C3CCC21O)C(C)C` (stereo not drawn) [Compound 9, 4α,24-dimethyl-5α-cholest-24(28)-en-3β,8β,11β-triol] registered an IC50 at 72 h in series [1] of 18.3 ± 4 µM. Further, the values for the IC50 in series [2] and in series [3] were 25.9 ± 4.9 µM and 36.4 ± 5.7 µM, respectively.
For the molecule `CC(C)[C@@H](C)/C=C/[C@@H](C)[C@H]1CC[C@@H]2[C@]1(C)C[C@H](O)[C@@H]1[C@@]3(C)CC[C@H](O)[C@@H](C)[C@@H]3CC[C@@]21O` [Compound 10, (22E,24R)-4α,24-dimethyl-5α-cholest-22-en-3β,8β,11β-triol], the IC50 at 72 h in series [1] stood at 4.1 ± 1.9 µM. Also, the values for the half-inhibitory concentration (IC50) in series [2] and in series [3] were 32.9 ± 6.8 µM and 32.7 ± 1.3 µM, respectively. Also, in series [4], the “Concentration dependence of AR inhibition” value is recorded as “increased inhibition of AR”.
With `C=C(C(=O)CC(C)C1CCC2C1(C)CC(O)C1C3(C)CCC(O)C(C)C3CCC21O)C(C)C` (stereo not drawn) [Compound 11, 23-oxo-4α,24-dimethyl-5α-cholest-24(28)-en-3β,8β,11β-triol], in series [5], the “Inhibition of HUVEC migration” value is “partially inhibited”. In series [6], the “Effect on cell death (PI assay), in words” value is “significantly reduced cell death”. Also, in series [7], the “Cytotoxicity toward normal cells (BJ), in words” value (“Cytotoxicity toward normal cells” below) was “absence of cytotoxicity”. In series [1], the IC50 at 72 h was > 50 µM. For the same molecule, the results for the IC50 in series [2] and in series [3] were 18.8 ± 6.4 µM and 21.7 ± 1.4 µM, respectively. Further, the “Rank of AR inhibition” value in series [4] (10 µM) is reported as “strongest inhibition of AR”. Further, the “Luciferase activity (AR-mediated transcription), in words” value (from here on “Luciferase activity”) in series [4] was “clearly reduced luciferase activity in a dose-dependent manner”.
For the molecule `C=C(C(C)C)C(CC(C)C1CCC2C1(C)CC(O)C1C3(C)CCC(O)C(C)C3CCC21O)OC(C)=O` (stereo not drawn) [Compound 12, 23ξ-acetoxy-4α,24-dimethyl-5α-cholest-24(28)-en-3β,8β,11β-triol], the “Inhibition of HUVEC migration” value in series [5] was “partially inhibited”. Also, the “Cytotoxicity toward normal cells” value in series [7] is reported as “absence of cytotoxicity”. Further, the concentration for half-maximal inhibition (IC50) at 72 h in series [1] is > 50 µM. For the same molecule, the IC50 in series [2] is 15.7 ± 2 µM; in series [3], 25.3 ± 6.5 µM. Besides, in series [4], the “Luciferase activity” value is listed as “clearly reduced luciferase activity in a dose-dependent manner”.
On to `CC(C)C(C)/C=C\[C@@H](C)[C@H]1CC[C@H]2[C@]3(O)CC[C@H]4[C@H](C)[C@@H](O)CC[C@]4(C)[C@H]3[C@@H](O)[C@H](O)[C@]12C` (stereo partly drawn) [Compound 14, (22Z)-4α,24ξ-dimethyl-5α-cholest-22-en-3β,8β,11β,12α-tetraol], for which the “Cytotoxicity toward normal cells” value in series [7] is given as “absence of cytotoxicity”. Besides, in series [1], the IC50 at 72 h was > 50 µM. Also, the IC50 in series [2] was > 50 µM; in series [3], 29.1 ± 5 µM.
For `C=C(CCC(C)C1CCC2C3(O)CCC4C(C)C(O)CCC4(C)C3CCC12CO)C(C)C` (stereo not drawn) [Compound 15, 4α,24-dimethyl-5α-cholest-24(28)-en-3β,8β,18-triol], the “Cytotoxicity toward normal cells” value in series [7] is given as “absence of cytotoxicity”. The IC50 at 72 h in series [1] is > 50 µM. Moreover, the values for the IC50 in series [2] and in series [3] were 19 ± 4.3 µM and 18.9 ± 0.1 µM, respectively.
Molecule `CC(C)[C@@H](C)/C=C/[C@@H](C)[C@H]1CC[C@H]2[C@]3(O)CC[C@H]4[C@H](C)[C@@H](O)CC[C@]4(C)[C@H]3CC[C@]12CO` [Compound 16, (22E,24R)-4α,24-dimethyl-5α-cholest-22-en-3β,8β,18-triol] returned an IC50 at 72 h in series [1] of 23.2 ± 1.4 µM. Moreover, in series [2], the concentration for half-maximal inhibition (IC50) is 32.9 ± 5.2 µM. For the same molecule, the IC50 in series [3] is 33.8 ± 1 µM. Also, in series [4], the “Concentration dependence of AR inhibition” value was “increased inhibition of AR” and the “Luciferase activity” value is “clearly reduced luciferase activity in a dose-dependent manner”.
On to `C=C(CCC(C)C1CCC2C3CC=C4CC(O)CCC4(C)C3CCC12C)C(C)C` (stereo not drawn) [Compound 17, 24-methyl-cholesta-5,24(28)-dien-3β-οl], for which the IC50 in series [2] and in series [3] was > 50 µM each time. Further, the IC50 at 72 h in series [8] is > 50 µM.
As to `C=C(CCC(C)C1CCC2C3C(O)C=C4CC(O)CCC4(C)C3CCC12C)C(C)C` (stereo not drawn) [Compound 18, 24-methyl-cholesta-5,24(28)-dien-3β,7β-diol], the “Cytotoxicity toward normal cells” value in series [7] is given as “absence of cytotoxicity”. In series [1], the IC50 at 72 h is > 50 µM. Besides, the IC50 was determined as 22.6 ± 0.4 µM in series [2] and 28.6 ± 5.3 µM in series [3].
Turning to `C=C(CCC(C)C1CCC2C3CC=C4CC(O)CCC4(CO)C3CCC12C)C(C)C` (stereo not drawn) [Compound 19, 24-methyl-cholesta-5,24(28)-dien-3β,19-diol], in series [1], the IC50 at 72 h is > 50 µM. For the same molecule, the IC50 in series [2] and in series [3] was > 50 µM in each case.
For the molecule `C=C(C=CC(C)C1CCC2C3CC=C4CC(O)CCC4(CO)C3CCC12C)C(C)C` (stereo not drawn) [Compound 20, (22E)-24-methyl-cholesta-5,22,24(28)-trien-3β,19-diol], the IC50 at 72 h in series [1] was > 50 µM. Moreover, the IC50 in series [2] and in series [3] was > 50 µM in each case. Also, in series [4], the “Concentration dependence of AR inhibition” value is “increased inhibition of AR”. For the same molecule, the “Luciferase activity” value in series [4] is given as “clearly reduced luciferase activity in a dose-dependent manner”.
For the molecule `C=C(CCC(C)C1CCC2C3C(OC(C)=O)C=C4CC(O)CCC4(CO)C3CCC12C)C(C)C` (stereo not drawn) [Compound 22, 7β-acetoxy-24-methyl-cholesta-5,24(28)-dien-3β,19-diol], the “Inhibition of HUVEC migration” value in series [5] was “partially inhibited”. Besides, the IC50 in series [2] came out at 7.5 ± 0.1 µM; in series [3] it was 8.9 µM. The molecule also yielded an IC50 at 72 h in series [8] of 14.8 ± 5.8 µM.
With `CC(=O)O[C@H]1C=C2C[C@@H](O)CC[C@]2(CO)[C@H]2CC[C@]3(C)[C@@H]([C@H](C)CCCC(C)C)CC[C@H]3[C@H]12` [Compound 23, 7β-acetoxy-cholest-5-en-3β,19-diol], the “Inhibition of HUVEC migration” value in series [5] was “partially inhibited”. Also, in series [6], the “Effect on cell death (PI assay), in words” value is “significantly reduced cell death”. This molecule also displayed an IC50 at 72 h in series [1] of 14.5 ± 3.9 µM. The figures for the IC50 in series [2] and in series [3] were 12 ± 1.7 µM and 11.2 ± 0.5 µM, respectively.
On to `C=C(CCC(C)C1CCC2C3C(=O)C=C4CC(O)CCC4(CO)C3CCC12C)C(C)C` (stereo not drawn) [Compound 24, 7-oxo-24-methyl-cholesta-5,24(28)-dien-3β,19-diol], for which it took 45.9 ± 2.8 µM to reach half-maximal inhibition in series [1] (IC50 at 72 h). For the same molecule, the IC50 was found to be 21.4 ± 2 µM in series [2] and 31.7 ± 0.3 µM in series [3].
As to `C=C(CCC(C)C1CCC2C3=CC(O)C4(O)CC(O)CCC4(C)C3CCC21C)C(C)C` (stereo not drawn) [Compound 25, 24-methyl-cholesta-7,24(28)-dien-3β,5α,6β-triol], the IC50 at 72 h in series [1] was > 50 µM. Moreover, the IC50 in series [2] and in series [3] was > 50 µM in each case.
Consider `CC(C)[C@@H](C)/C=C/[C@@H](C)[C@H]1CC[C@H]2C3=C[C@@H](O)[C@@]4(O)C[C@@H](O)CC[C@]4(C)[C@H]3CC[C@]12C` [Compound 26, (22E,24R)-24-methyl-cholesta-7,22-dien-3β,5α,6β-triol], for which the IC50 at 72 h in series [1] is > 50 µM. The IC50 in series [2] and in series [3] was > 50 µM each time.
Turning to `C[C@]12CC[C@H](O)CC1=CC[C@@H]1[C@@H]2CC[C@]2(C)C(n3cnc4ccccc43)=CC[C@@H]12` [Galeterone, reference compound], the “Inhibition of AR-regulated transcription” value in series [4] (10 µM, 22Rv1-ARE14) amounted to 22%.
